These results are taken from PMC5584945, “Evaluation of robenidine analog NCL195 as a novel broad-spectrum antibacterial agent” (PLoS ONE, 2017).

This assay deals with S. aureus ATCC 29213. Briefly: Macromolecular synthesis inhibition. Type of assay: cell-based, Staphylococcus aureus. As to conditions: 0.25 to 8-fold MIC; exponentially growing culture. The method, then:
Morphological appearance and morphometric analysis of the cell membrane of S. pneumoniae D39 after exposure to either 1 μg/ml, 4 μg/ml or 16 μg/ml of NCL812 was determined using TEM, as described in S1 File (Supplementary Methods). For S. aureus ATCC 29213, macromolecular (DNA, RNA, protein, cell wall, and lipid) synthesis inhibition studies were performed using concentrations of NCL812 that were equivalent to 0, 0.25, 0.5, 1, 2, 4 or 8-fold the MIC value (4 μg/ml), as detailed in S1 File (Supplementary Methods).
Effect of NCL812 on S. aureus ATCC29213 macromolecular synthesis. […]
A 5% DMSO treated culture served as the “no drug” control for all experiments. […] After washing three times with 5 ml of cold 5% TCA, the filters were rinsed two times with 5 ml 100% ethanol, allowed to dry, and then counted using a Beckman LS3801 liquid scintillation counter.
To test the effect of NCL812 on cell wall synthesis, bacteria were transferred to M9 minimal medium and added to 1.5 ml eppendorf tubes (100 μl/tube) containing various concentrations of test compound or control antibiotics (5 μl) at 20X the final concentration in 100% DMSO as described above. […] After washing three times with 5 ml of 0.1% SDS, the filters were rinsed two times with 5 ml of deionized water, allowed to dry, and then counted using a Beckman LS3801 liquid scintillation counter. […]

Turning to `Cl.N=C(NN=Cc1ccc(Cl)cc1)NN=Cc1ccc(Cl)cc1` [NCL812, 2,2'-bis[(4-chlorophenyl)methylene] carbonimidic dihydrazide hydrochloride], the “Effect on macromolecular synthesis pathways” value is “inhibited DNA (A), RNA (B), protein (C), cell wall (D), and lipid (E) pathways”.
